The values that follow come from PMC8311463, “Cyclotides Isolated From Violet Plants of Cameroon Are Inhibitors of Human Prolyl Oligopeptidase” (Frontiers in Pharmacology, 2021).

Bridge positions count the residues as written; N and C are the ends. Peptide text beside a SMILES is read from it. * marks the point of attachment. AMC = Cc1cc(=O)oc2cc(N*)ccc12; Cbz = O=C(OCc1ccccc1)*

One may read the Vmax as the rate approached at saturating substrate. Usually Hill slope stands for the slope factor of the fitted curve.

The test system of data set [1] is POP. Set-up: method as in 3 sources, ref Hellinger et al., 2015a ||| ref Tarrago et al., 2007; Tarragó et al., 2008; Cahlíková et al., 2015 ||| ref Retzl et al., 2020. The following applies: cited from earlier work; for POP inhibition (in words): alkaloids and flavonoids, ref Tarrago et al., 2007, Tarragó et al., 2008, Cahlíková et al., 2015. On the procedure:
Previous phytochemical studies identified natural products as inhibitors for POP such as small molecule entities and natural peptides. […] A sequence logo was prepared to compare the amino acid positions for conserved residues or to identify variable positions (Figure 7C).

Data set [2] concerns the target T1, human POP (Homo sapiens, UniProt P48147).
T1 construct: the full-length untagged protein was obtained after site-specific cleavage; GST (N, cleaved yes); made in house; host or cells: Escherichia coli BL21 (D3 [sic] strain)
T1 sequence (P48147 1-710): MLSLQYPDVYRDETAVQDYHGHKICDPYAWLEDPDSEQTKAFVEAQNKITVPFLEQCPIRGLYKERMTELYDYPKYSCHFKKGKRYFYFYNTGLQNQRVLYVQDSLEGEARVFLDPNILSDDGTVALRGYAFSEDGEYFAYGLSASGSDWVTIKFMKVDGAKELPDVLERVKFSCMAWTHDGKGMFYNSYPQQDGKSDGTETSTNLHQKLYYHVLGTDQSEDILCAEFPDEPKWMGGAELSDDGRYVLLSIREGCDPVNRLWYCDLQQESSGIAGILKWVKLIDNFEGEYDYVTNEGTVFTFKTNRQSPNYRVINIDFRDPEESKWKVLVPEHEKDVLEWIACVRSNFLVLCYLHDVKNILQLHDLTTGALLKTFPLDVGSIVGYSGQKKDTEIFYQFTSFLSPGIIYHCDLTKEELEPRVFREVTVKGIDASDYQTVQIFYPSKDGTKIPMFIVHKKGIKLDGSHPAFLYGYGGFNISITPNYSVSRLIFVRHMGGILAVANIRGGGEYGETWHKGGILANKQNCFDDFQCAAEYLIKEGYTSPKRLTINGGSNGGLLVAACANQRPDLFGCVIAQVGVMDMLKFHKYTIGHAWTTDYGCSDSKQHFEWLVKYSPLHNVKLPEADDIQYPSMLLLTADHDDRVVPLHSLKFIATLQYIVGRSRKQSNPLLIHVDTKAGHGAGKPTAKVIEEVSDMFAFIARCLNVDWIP
Nature of the data set: POP inhibition assay, Z-Gly-Pro-amino-coumarin substrate. Type of data set: biochemical.
Procedure: The POP inhibition assays were carried out similarly as recently described ([Hellinger et al., 2015a]; [Retzl et al., 2020]) using a bacterial expressed POP enzyme. […] For enzyme inhibition assays human POP (50 ng/well) was incubated in assay buffer (20 mM Hepes pH 7.2, 150 mM NaCl, 1 mM EDTA, 0.5 mM DTT) together with substrate Z-Gly-Pro-amino-coumarin (final concentration 45 µM) at 37°C for 60 min. […] All experiments were performed in 96-microtiter black bottom plates. Concentration-response inhibition assays were performed with [S] = K m, which is considered a suitable condition for evaluating samples of unknown inhibition mode (e.g. competitive, noncompetitive or uncompetitive reversible inhibition). The protease activity was quantified as fluorescence from the proteolytically cleaved amino-coumarin fluorophore with excitation 380 nm and emission 420 nm on a Biotek Synergy H4 plate reader. The fluorogenic substrate provide elevated fluorescence by the delocalization of electrons after the amide bond cleavage and release of the 7 amino coumarin moiety. All samples for protease inhibition assays were prepared in ddH2O. Concentration-dependent inhibition studies were performed with the peptide enriched extracts (2–1,000 μg/ml) or isolated peptides (0.1–60 µM). For bioassay-guided isolation HPLC fractions were assayed for POP inhibition with three concentrations (4, 20 and 100 μg/ml). Kinetic measurements were carried out to obtain initial velocities in the presence of sample (vi) or enzyme alone (vo) ([Arnison et al., 2013]). The percent remaining POP activity was calculated as I = (vi/vo)*100. A substrate background was used for correction of all measurements. KYP-2047, a specific POP inhibitor, was used as positive control in the assays. […] Four parameter non-linear regression curve fits were obtained using GraphPad Prism v5.0 fitting algorithms with equation Y=Bottom + (Top-Bottom)/(1 + 10^((LogIC50-X)*Hill Slope)) in which X is the log dose and Y the measured response.

Data set [3] deals with POP. The settings on record: clinical phase 1 and 2; ref López et al., 2013; cited from earlier work. An excerpt: Ethnomedicinal studies have shown beneficial effects of cyclotide expressing plants in few disease conditions with relationship to POP. For instance, African traditional medicine describes the therapeutic application of Rinorea dentata (P. Beauv.) Kuntze from the Violaceae toward neurodegenerative diseases ([Sonibare and Ayoola, 2015]). […] To make use of these beneficial effects it will be necessary to further investigate P ...

Data set [4] has as its target T1, human POP. Nature of the data set: POP enzyme kinetics (Michaelis-Menten) with Z-Gly-Pro-amino-coumarin. Type of data set: biochemical. The following applies: substrate Z-Gly-Pro-amino-coumarin, optimized assay buffer 20 mM Hepes pH 7.2, 150 mM NaCl, 1 mM EDTA, 0.5 mM DTT. How it is done: The POP inhibition assays were carried out similarly as recently described ([Hellinger et al., 2015a]; [Retzl et al., 2020]) using a bacterial expressed POP enzyme. Human POP cDNA (accession NM:002726.4) was inserted into a pGEX-6P1 expression vector using the EcoRI and XhoI sites (Genescript, Leiden, Netherlands) and expressed in Escherichia coli (BL21 D3 strain). Protein expression was induced by addition of 0.3–0.5 mM isopropyl-β-D-thiogalactopyranoside (ProteinArk, Rotterdam, Netherlands) at an optical density (OD600) between 0.6 and 0.8 to the bacterial culture and incubated at 25°C under constant shaking. The protein was harvested at an OD600 between 1.4 and 1.5. POP was purified via GST-affinity capture beads. […] The protein concentration was determined with bicinchoninic acid assay (ThermoFisher). […] The protease activity was quantified as fluorescence from the proteolytically cleaved amino-coumarin fluorophore with excitation 380 nm and emission 420 nm on a Biotek Synergy H4 plate reader. The fluorogenic substrate provide elevated fluorescence by the delocalization of electrons after the amide bond cleavage and release of the 7 amino coumarin moiety. […] The percent remaining POP activity was calculated as I = (vi/vo)*100. […]

Data set [5] can be described thus: Precipitation of the substrate in POP assay. In kind it is physicochemical. The following applies: optimized POP assay conditions, tested between 0.766 µM and 300 µM. On the procedure: Supplementary Figure S3. POP purification and optimization of the assay system.Human POP wa s expressed in E. coliand purified as functional protease. The purification steps were analyzed using a Coomassie stained protein gel. Purifi ed POP enzyme is shown in lane 7 after site-specific cleavage with PreS cissi on protease and rel ease of the untagg ed protein (A). Different assay conditions were tested to study the effect of buffer sy stems and pH dependency (B,C), the use of organi c solve nts (D), DTT (E) and NaCl (F) concentration on POP enzyme activ ity. For calculation of POP activ ity the slope in the li near range between 5 and 35 mi n of kinetic measurements were used. With the optim ized conditionsZ-Gly-Pro-amino-coumarin concentrations between 0.766 µM and 300 µM were tested in a kinetic measurement and a con centration dependent increase in sig nal was observed. Above 150 µM substrate concentration no further increase in sig nal was measured due to preci pitation of the substra te (G). Al l data are shown as mean of three biologi cal experim ents and error is shown as ±SEM.
(1 picture or pasted object on this page, not shown here)

As for `O=c1cc(-c2ccccc2)oc2cc(O)c(O)c(O)c12` [balcalein], the “POP inhibition (in words)” value in the data set on POP [1] is “inhibit POP activity”. Regarding `CC[C@H](C)[C@@H]1NC(=O)[C@@H]2CSSC[C@@H]3NC(=O)[C@H](C(C)C)NC(=O)[C@H](CCCCN)NC(=O)[C@H](CC(N)=O)NC(=O)[C@H](CO)NC(=O)[C@@H]4CSSC[C@H](NC(=O)[C@H](CO)NC(=O)[C@H](CCC(=O)O)NC(=O)CNC(=O)[C@H](CSSC[C@H](NC(=O)CNC(=O)[C@H](CC(C)C)NC(=O)[C@H](C(C)C)NC(=O)CNC(=O)[C@H](CO)NC1=O)C(=O)N[C@@H](CO)C(=O)N4)NC(=O)[C@@H]1CCCN1C(=O)[C@H]([C@@H](C)CC)NC(=O)CNC(=O)[C@H](CC(N)=O)NC(=O)[C@H](CCCNC(=N)N)NC(=O)[C@H](Cc1ccc(O)cc1)NC3=O)C(=O)N[C@@H](C(C)C)C(=O)N[C@@H](Cc1ccccc1)C(=O)N[C@@H]([C@@H](C)CC)C(=O)N1CCC[C@H]1C(=O)N2` [alca 2] (cyclo(CGESCVFIPCISGVLGCSCSNKVCYRNGIP); disulfide 1-17, 5-19, 10-24), the IC50 on human POP [2] was 4.4 ± 0.7 µM. `O=C(CO)[C@@H]1CCCN1C(=O)[C@@H]1CCCN1C(=O)NCc1ccccc1` [JTP-4819]: the “clinical outcome (in words)” value in the data set with POP [3] is “failed to succeed or provided ambiguous outcomes in their clinical phase”.

`C[N+]1(C)[C@H]2Cc3cc4c(cc3[C@@H]1Cc1cc3c(cc12)COC3)OCO4` [californidine]: the “POP inhibition (in words)” value with POP [1] is recorded as “inhibit POP activity”. For the compound `Cc1cc(=O)oc2cc(NC(=O)[C@@H]3CCCN3C(=O)CNC(=O)OCc3ccccc3)ccc12` [Z-Gly-Pro-amino-coumarin] (Cbz-Gly-Pro-{AMC}), on human POP [4], the K m came to 42.4 µM and the Vmax worked out at 0.00015 µmol/min. Besides, in data set [5], the “substrate concentration above which precipitation of the substrate occurs” value was “Above 150 µM”. `COc1ccc2cc3[n+](cc2c1OC)CCc1cc2c(cc1-3)OCO2` [berberine]: the “POP inhibition (in words)” value in the data set on POP [1] is recorded as “inhibit POP activity”.

Compound `CC[C@H](C)[C@@H]1NC(=O)[C@H](C)NC(=O)[C@H](C)NC(=O)[C@H](CO)NC(=O)[C@H]([C@@H](C)CC)NC(=O)[C@@H]2CSSC[C@@H]3NC(=O)[C@H](C(C)C)NC(=O)[C@H](CCCCN)NC(=O)[C@H](CC(N)=O)NC(=O)[C@H](CCCCN)NC(=O)[C@@H]4CSSC[C@H](NC(=O)[C@H](CO)NC(=O)[C@H](CCC(=O)O)NC(=O)CNC(=O)[C@H](CSSC[C@H](NC(=O)CNC1=O)C(=O)N[C@@H](CO)C(=O)N4)NC(=O)[C@@H]1CCCN1C(=O)[C@H]([C@@H](C)CC)NC(=O)[C@H](C(C)C)NC(=O)CNC(=O)[C@H](CC(=O)O)NC(=O)[C@H](CCCNC(=N)N)NC(=O)[C@H](Cc1ccc(O)cc1)NC3=O)C(=O)N[C@@H](C(C)C)C(=O)N[C@@H](Cc1ccccc1)C(=O)N[C@@H]([C@@H](C)CC)C(=O)N1CCC[C@H]1C(=O)N2` [alca 1] (cyclo(AAIGCSCKNKVCYRDGVIPCGESCVFIPCIS); disulfide 5-20, 7-24, 12-29) yielded an IC50 against human POP [2] of 8.5 ± 5.9 µM. Moreover, on human POP [2] (sigmoidal inhibition curves of isolated peptides, four parameter non-linear regression, mean ± standard deviation, three or five biological experiments, respectively (alca 1, alca 2)), the Hill slope is −1.2 ± 0.1.

On to “kalata B1: cyclotide, amongst others in V. tricolor L., Moebius type (cyclo(GLPVCGETCVGGTCNTPGCTCSWPVCTRN); disulfide 14-26, 5-19, 9-21; UniProt P56254 89-117, looked up)”, for which the IC50 with POP [1] (POP, ref Hellinger et al., 2015a, read-out: half maximal inhibitory concentration (IC50)) was 5.6 µM.
